Assay results reported in ChEMBL document CHEMBL5532655, “Discovery of (R)-4-(8-methoxy-2-methyl-1-(1-phenylethy)-1H-imidazo[4,5-c]quinnolin-7-yl)-3,5-dimethylisoxazole as a potent and selective BET inhibitor for treatment of acute myeloid leukemia (AML) guided by FEP calculation” (Eur J Med Chem, 2024).

Experiments:
[1] = molecular target: Bromodomain testis-specific protein (Homo sapiens) (UniProt Q58F21); experiment: Binding affinity to BRDT BD1 (unknown origin) using biotinylated histone peptide H4 as substrate at 1 uM incubated for 2 hrs by AlphaScreen assay relative to control
[2] = molecular target: Histone acetyltransferase p300 (Homo sapiens) (UniProt Q09472); experiment: Binding affinity to EP300 (unknown origin) using biotinylated histone peptide H4 as substrate at 1 uM incubated for 2 hrs by AlphaScreen assay relative to control
Sequence of Histone acetyltransferase p300 (Homo sapiens) (Q09472 whole entry): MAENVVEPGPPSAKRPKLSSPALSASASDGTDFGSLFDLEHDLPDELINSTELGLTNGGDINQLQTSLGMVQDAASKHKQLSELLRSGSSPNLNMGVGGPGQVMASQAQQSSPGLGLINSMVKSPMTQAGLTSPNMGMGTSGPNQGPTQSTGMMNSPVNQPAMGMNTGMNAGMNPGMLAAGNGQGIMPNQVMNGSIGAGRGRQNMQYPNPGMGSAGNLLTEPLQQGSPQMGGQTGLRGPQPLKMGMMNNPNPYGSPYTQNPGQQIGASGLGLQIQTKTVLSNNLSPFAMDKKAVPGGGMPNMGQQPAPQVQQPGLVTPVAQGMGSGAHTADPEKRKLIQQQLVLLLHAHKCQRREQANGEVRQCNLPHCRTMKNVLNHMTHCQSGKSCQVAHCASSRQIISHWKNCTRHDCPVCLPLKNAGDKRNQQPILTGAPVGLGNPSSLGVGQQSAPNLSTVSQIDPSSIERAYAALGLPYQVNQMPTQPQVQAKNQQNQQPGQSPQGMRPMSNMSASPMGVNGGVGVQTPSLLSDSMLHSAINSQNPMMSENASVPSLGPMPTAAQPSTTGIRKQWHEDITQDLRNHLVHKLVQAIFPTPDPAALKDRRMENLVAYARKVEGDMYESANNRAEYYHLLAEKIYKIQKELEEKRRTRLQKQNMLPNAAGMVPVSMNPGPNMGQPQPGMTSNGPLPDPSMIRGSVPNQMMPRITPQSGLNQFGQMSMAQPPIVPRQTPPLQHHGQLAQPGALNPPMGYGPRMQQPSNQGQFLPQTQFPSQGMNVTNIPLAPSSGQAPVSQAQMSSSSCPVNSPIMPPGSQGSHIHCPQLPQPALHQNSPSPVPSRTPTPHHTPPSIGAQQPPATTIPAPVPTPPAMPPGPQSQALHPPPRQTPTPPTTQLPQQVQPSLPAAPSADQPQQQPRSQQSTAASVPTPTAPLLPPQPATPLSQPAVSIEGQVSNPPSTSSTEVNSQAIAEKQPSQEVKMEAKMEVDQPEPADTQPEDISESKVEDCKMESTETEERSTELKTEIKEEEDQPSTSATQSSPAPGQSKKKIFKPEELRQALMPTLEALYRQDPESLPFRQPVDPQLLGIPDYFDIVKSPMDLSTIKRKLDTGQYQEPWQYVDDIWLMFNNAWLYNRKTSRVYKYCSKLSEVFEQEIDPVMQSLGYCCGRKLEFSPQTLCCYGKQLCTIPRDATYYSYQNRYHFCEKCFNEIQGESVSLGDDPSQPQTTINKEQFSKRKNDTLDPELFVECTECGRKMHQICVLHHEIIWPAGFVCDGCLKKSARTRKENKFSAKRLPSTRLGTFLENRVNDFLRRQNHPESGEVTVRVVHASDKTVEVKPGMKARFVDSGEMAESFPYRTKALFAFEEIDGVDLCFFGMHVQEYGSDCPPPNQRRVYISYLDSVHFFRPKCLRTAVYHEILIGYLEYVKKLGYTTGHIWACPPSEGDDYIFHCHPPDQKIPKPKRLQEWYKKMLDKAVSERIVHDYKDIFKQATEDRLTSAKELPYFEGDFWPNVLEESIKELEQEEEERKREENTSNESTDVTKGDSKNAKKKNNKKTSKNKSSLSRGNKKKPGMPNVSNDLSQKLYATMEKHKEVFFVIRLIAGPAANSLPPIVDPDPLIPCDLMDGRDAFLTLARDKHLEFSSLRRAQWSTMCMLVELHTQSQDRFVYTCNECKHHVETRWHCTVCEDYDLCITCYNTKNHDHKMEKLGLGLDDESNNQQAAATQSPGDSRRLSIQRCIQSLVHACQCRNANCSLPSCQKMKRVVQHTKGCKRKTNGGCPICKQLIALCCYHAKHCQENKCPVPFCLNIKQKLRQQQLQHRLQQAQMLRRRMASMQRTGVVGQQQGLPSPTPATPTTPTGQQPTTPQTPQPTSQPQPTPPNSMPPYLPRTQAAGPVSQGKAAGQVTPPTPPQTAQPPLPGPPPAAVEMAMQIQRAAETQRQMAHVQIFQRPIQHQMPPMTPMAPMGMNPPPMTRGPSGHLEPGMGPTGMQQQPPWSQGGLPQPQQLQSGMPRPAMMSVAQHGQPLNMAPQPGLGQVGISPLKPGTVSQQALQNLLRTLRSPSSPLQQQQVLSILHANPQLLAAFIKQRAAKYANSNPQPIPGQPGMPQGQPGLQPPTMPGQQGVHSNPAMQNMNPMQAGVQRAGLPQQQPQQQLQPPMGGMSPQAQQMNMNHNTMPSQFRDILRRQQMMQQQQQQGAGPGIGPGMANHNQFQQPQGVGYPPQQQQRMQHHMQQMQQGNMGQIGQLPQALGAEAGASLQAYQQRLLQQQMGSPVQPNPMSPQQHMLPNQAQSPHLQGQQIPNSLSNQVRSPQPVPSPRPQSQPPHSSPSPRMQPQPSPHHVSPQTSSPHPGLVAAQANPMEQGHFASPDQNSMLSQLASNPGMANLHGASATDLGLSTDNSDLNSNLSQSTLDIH

[3] = molecular target: T1, Transcription intermediary factor 1-alpha (Homo sapiens) (UniProt O15164); details: time 30.0 min
T1 sequence (whole entry): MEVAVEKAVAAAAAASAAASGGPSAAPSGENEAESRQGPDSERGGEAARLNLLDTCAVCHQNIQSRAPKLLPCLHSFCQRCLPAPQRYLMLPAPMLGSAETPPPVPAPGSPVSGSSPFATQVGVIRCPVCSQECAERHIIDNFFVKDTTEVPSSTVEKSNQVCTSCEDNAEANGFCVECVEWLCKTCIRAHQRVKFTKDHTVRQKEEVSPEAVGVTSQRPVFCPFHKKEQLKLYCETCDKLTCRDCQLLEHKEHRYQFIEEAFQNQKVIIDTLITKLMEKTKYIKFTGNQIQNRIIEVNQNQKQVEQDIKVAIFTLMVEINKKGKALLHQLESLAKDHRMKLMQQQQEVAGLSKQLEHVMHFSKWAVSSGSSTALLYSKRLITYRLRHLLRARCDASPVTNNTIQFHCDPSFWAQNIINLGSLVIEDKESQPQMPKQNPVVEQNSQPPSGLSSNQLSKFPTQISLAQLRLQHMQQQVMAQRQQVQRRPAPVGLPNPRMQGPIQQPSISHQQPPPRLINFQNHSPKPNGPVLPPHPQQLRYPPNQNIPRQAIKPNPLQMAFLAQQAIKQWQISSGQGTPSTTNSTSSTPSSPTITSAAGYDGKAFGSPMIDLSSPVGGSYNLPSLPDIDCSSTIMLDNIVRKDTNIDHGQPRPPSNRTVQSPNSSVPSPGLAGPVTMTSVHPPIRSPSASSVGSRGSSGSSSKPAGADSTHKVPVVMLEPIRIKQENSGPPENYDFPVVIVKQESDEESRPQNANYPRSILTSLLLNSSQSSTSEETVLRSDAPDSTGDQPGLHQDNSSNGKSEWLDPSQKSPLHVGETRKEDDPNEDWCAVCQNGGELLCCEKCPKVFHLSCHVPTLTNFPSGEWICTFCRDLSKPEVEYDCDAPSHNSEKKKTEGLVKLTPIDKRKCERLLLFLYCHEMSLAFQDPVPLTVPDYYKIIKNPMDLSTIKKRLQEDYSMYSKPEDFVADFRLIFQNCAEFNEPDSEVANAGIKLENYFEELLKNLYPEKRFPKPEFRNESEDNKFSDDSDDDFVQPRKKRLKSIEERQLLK

[4] = species on record: Homo sapiens; details: time 30.0 min
[5] = species on record: Homo sapiens; details: time 30.0 min; remark: listed apart in the source
[6] = molecular target: SWI/SNF-related matrix-associated actin-dependent regulator of chromatin subfamily A member 2 (Homo sapiens) (UniProt P51531); experiment: Binding affinity to SMARCA2 (unknown origin) using biotinylated histone peptide H4 as substrate at 1 uM incubated for 2 hrs by AlphaScreen assay relative to control
[7] = test system: MOLM-13; experiment: cells; details: Homo sapiens, MOLM-13, 48 h
Description: Antiproliferative activity against human MOLM-13 cells assessed as inhibition of cell growth incubated for 48 hrs by MTT assay

[8] = molecular target: T2, Peregrin (Homo sapiens) (UniProt P55201); details: time 30.0 min
T2 sequence (whole entry): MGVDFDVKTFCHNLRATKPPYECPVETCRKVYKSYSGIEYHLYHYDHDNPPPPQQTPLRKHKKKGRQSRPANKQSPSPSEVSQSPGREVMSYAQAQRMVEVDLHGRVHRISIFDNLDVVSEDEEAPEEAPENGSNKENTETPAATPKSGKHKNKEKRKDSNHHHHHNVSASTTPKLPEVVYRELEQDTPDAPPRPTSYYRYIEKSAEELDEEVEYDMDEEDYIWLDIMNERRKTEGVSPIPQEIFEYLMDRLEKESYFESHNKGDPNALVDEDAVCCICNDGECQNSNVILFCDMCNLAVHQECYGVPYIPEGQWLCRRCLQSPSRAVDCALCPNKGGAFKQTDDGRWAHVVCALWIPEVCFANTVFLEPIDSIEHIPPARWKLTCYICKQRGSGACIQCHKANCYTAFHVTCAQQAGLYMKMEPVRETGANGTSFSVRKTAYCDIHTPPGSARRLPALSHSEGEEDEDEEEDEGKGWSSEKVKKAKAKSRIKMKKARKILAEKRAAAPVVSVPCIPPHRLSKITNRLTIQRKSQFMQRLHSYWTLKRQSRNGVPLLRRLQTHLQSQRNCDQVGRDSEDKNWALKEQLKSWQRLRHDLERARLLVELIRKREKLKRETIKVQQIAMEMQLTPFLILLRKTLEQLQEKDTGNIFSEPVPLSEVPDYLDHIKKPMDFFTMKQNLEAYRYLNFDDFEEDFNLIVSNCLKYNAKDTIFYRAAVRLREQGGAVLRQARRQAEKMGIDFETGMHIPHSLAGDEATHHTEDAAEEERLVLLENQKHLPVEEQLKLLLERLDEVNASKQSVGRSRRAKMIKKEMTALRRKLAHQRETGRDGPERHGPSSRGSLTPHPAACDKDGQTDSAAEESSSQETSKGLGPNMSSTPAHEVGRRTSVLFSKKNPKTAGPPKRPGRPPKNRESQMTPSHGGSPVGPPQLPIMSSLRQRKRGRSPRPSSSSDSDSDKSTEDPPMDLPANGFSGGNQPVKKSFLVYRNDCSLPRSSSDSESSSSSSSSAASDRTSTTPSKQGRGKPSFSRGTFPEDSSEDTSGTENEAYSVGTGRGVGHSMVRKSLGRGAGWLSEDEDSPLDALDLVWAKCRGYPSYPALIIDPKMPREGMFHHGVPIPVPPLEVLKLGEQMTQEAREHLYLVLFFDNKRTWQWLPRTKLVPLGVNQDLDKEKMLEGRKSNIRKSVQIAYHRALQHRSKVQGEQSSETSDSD

[9] = molecular target: Bromodomain adjacent to zinc finger domain protein 2B (Homo sapiens) (UniProt Q9UIF8); experiment: Binding affinity to BAZ2B (unknown origin) using biotinylated histone peptide H4 as substrate at 1 uM incubated for 2 hrs by AlphaScreen assay relative to control
Sequence of Bromodomain adjacent to zinc finger domain protein 2B (Homo sapiens) (Q9UIF8 whole entry, the tested form may be a part): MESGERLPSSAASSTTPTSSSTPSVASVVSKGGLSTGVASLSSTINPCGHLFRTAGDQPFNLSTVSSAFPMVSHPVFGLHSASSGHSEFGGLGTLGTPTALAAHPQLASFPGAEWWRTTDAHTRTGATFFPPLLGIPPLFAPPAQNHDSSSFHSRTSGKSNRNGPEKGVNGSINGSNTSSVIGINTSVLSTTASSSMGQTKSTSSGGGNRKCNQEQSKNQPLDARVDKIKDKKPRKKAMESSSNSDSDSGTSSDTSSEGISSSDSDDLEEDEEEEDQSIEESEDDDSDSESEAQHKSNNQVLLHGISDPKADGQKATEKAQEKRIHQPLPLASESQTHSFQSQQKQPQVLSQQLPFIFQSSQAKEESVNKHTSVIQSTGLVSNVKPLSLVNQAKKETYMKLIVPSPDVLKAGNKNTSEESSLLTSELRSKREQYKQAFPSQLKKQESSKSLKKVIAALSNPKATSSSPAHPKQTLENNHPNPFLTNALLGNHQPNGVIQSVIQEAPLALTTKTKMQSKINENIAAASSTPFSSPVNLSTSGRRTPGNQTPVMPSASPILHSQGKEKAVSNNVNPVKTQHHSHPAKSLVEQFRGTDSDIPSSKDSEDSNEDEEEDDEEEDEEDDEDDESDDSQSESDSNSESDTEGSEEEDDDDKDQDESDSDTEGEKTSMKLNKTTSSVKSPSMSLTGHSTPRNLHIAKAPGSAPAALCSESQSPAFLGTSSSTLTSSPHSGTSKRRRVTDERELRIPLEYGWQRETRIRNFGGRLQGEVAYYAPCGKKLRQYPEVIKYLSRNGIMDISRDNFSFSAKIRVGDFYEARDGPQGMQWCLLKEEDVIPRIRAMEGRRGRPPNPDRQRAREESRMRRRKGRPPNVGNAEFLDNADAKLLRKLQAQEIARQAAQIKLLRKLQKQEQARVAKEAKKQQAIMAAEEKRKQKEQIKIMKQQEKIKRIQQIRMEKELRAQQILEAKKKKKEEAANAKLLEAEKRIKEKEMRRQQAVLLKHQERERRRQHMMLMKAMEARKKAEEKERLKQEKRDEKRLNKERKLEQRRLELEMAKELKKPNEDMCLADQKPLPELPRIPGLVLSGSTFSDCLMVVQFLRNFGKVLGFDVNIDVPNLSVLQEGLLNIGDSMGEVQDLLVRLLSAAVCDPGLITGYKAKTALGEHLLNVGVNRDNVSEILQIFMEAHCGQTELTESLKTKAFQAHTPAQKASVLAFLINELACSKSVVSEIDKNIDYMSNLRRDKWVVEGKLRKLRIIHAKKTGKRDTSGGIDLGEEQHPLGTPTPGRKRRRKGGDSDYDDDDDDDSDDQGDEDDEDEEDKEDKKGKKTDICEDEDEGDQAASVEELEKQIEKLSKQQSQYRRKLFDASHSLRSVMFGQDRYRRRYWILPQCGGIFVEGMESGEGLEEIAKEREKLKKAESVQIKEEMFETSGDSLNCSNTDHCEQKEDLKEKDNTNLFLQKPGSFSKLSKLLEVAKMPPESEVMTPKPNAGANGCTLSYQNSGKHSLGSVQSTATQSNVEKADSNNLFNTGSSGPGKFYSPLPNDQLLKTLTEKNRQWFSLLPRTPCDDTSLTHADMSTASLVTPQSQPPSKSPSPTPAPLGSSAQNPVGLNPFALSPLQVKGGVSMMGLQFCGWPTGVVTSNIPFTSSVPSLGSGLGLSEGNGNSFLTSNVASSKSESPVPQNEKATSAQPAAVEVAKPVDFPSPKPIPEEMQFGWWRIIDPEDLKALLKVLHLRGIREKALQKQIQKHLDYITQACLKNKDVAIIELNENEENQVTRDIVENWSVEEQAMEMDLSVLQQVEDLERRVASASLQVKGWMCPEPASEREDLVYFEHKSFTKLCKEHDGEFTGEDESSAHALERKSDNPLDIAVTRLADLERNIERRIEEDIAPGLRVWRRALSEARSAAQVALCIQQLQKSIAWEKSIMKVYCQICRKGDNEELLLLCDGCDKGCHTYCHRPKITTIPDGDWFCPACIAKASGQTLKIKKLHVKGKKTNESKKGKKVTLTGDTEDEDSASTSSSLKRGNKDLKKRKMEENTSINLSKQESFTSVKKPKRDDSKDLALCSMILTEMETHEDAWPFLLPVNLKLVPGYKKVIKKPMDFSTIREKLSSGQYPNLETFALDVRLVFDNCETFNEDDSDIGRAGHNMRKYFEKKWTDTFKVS

| Structure (SMILES) | Activity [1] [%] | Activity [2] [%] | ΔTm [3] [°C] | ΔTm [4] [°C] | ΔTm [5] [°C] | Activity [6] [%] | IC50 [7] [nM] | ΔTm [8] [°C] | Activity [9] [%] |
| --- | --- | --- | --- | --- | --- | --- | --- | --- | --- |
| COc1cc2c(cc1-c1c(C)noc1C)ncc1nc(C)n([C@H](C)c3ccccc3)c12 | > 80 | > 80 | 0 | 0 | 0 | < 30 | 430 | 0 | < 30 |
| COc1cc2c(cc1-c1c(C)n[nH]c1C)ncc1nc(C)n([C@H](C)c3ccccc3)c12 | 50 | < 30 | 0 | 0 | 0 | < 30 | 660 | 0 | < 30 |
